Literature values in patent publication US12486292B2, “Prodrug platform useful to deliver amines, amides and phenols” (Changchun Changcheng Pharmaceutical Technology Co., LTD, priority 2019, dated 2025).

Conditions: phase I human clinical trials, oral dosing

In the case of `CCCC(CCC)C(=O)Nc1ccn([C@@H]2O[C@H](CO)[C@@H](O)C2(F)F)c(=O)n1` [LY2334737], the Hepatotoxicity is given as “observed in some patients”.
